Measured values taken from patent US8329913B2, “Carbazole derivative, solvate thereof, or pharmaceutically acceptable salt thereof” (Zeria Pharmaceutical Co., Ltd., priority 2004, dated 2012).

Target: T1, human PPARγ (Homo sapiens, UniProt P37231)
T1 construct: 1.6 kb of fragment of the prepared plasmid pGEMT-hPPARg2 including human PPARγ gene; expressed in transfected cells; host or cells: CV-1 cells, transient transfection with pCI-hPPARg2, pCI-hRXRa and the reporter pGL3-PPRE3-TK
T1 sequence (P37231 1-505): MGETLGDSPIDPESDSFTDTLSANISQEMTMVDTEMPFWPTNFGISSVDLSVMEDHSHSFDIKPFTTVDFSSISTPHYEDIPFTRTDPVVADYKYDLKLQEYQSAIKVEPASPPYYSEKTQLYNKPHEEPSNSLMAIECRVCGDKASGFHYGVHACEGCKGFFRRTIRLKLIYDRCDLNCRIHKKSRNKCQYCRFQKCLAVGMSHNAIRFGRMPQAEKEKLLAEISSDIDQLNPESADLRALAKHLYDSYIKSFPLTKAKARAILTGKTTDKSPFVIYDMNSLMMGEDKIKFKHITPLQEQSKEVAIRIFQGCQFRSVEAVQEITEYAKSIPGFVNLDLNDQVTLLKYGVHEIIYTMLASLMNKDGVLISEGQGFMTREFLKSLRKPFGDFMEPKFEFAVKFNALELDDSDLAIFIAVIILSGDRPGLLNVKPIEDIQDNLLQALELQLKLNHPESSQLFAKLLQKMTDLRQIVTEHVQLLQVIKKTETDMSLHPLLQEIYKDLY
T1 sequence (P19793 1-462 partner): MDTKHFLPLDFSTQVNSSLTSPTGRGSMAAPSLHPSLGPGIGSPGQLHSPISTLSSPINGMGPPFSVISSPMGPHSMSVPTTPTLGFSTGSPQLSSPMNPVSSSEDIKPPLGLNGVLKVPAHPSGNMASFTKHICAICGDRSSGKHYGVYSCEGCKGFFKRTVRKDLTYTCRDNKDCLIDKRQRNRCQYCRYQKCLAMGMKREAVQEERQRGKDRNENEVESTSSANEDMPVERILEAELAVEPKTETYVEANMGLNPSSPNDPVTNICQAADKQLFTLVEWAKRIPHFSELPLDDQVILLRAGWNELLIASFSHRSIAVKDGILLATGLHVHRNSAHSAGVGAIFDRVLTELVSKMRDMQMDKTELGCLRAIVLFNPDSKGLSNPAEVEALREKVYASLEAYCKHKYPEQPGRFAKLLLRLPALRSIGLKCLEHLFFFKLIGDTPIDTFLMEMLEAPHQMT
Experiment: Human PPARγ antagonist assay (luciferase reporter in transfected CV-1 cells)
Type: cell-based
Conditions: CV-1 cells expressing human PPARγ and RXRα with reporter plasmid; pioglitazone 1 μM as stimulant; 24 hours; read-out: Human PPARγ antagonist activities, Inhibition IC50
Experimental: CV-1 cells (96 well plate), where human PPARγ and RXRα has expressed in the transient transfection of reporter plasmid (see reference 5a) were washed once with PBS (100 μL/well), and then supplemented with 100 μL/well […], as well as pioglitazone (not limited to pioglitazone shown as an example, but may be any PPARγ agonist) at a final concentration of 1 μM as a stimulant were added, and incubated in a 5% CO2 incubator at 37° C. for 24 hours. After removing the medium, the CV-1 cells were washed once with PBS (100 μL/well), and supplemented with 60 μL/well of 1× Passive Lysis Buffer (manufactured by Promega Corporation). The CV-1 cells were incubated at room temperature for 30 minutes, stirred, and then by using Dual-Luciferase Reporter Assay System (manufactured by Promega Corporation), luciferase activities of firefly and renilla were measured using 1420 ARVO Multilabel Counter (manufactured by Wallac Oy). Also, the same experiments as that described above were respectively carried out for the cases where only the above-mentioned stimulants (100 nM, 1 μM, 10 μM) were used, where only the above-mentioned test compounds were used, or where neither was used (nonsupplemented), and luciferase activities of firefly and renilla were measured. Values corrected by dividing the firefly luciferase activities by the renilla luciferase activities were calculated as specific activities and used for evaluations.
Human PPARγ2 antagonist activities of the test compounds were evaluated by using a percentage (inhibition) where the specific activity in case only […] was added is regarded as 0% and the specific activity in case the test compound and the stimulant were not added is regarded as 100%. Moreover, the concentration of the test compound indicating the inhibition rate of 50% was calculated as the IC50 value. Also, human PPARγ2 agonist activities of the test compounds were evaluated by using a percentage (activity) where the specific activity when nonsupplemented is regarded as 0% and the specific activity in case only 10 μM stimulant was added is regarded as 100%, from the specific activity in case only the test compound is used.
CV-1 cells were cultured in DMEM medium (manufactured by Invitrogen Corporation) including 10% fetal bovine serum (manufactured by Dainippon Pharmaceutical Co., Ltd.) in 225T-Flask (manufactured by Corning Costar). The cells were detached by 0.5 g/L trypsin-0.2 g/L EDTA (ethylene diamine tetra-acetic acid) (manufactured by Invitrogen Corporation), and then suspended in the DMEM medium including 10% fetal bovine serum to a cell concentration of 2×10^5 cells/mL. Thereafter, the cells were seeded into 96 well plate at 2×10^4 cells/0.1 mL/well, incubated in the 5% CO2 incubator at 37° C. overnight, and then the plasmids prepared by the above-mentioned reference 1a, reference 3a, and reference 4a were transfected into cells by using a lipofectamine reagent (manufactured by Invitrogen Corporation) according to the attached manual.
Namely, after CV-1 cells were cultured overnight, the cells were washed with PBS (100 μL/well). Thereafter the cells were incubated for 5 hours at 37° C./5% CO2 in the MEM medium (manufactured by Invitrogen Corporation) including 430 ng/mL of human PPARγ expression plasmid (pCI-hPPARg2) prepared by the reference 1a, 430 ng/mL of human RXRα expression plasmid (pCI-hRXRa) prepared by the reference 3a, and 140 ng/mL of the reporter plasmid (pGL3-PPRE3-TK) prepared by the reference 4a, 10 ng/mL of phRL-TK vector (manufactured by Promega Corporation) and 2 μL/mL of lipofectamine.

Compound | IC50 [nM]
COc1cc(Cn2c3ccccc3c3c(Oc4ccc(C(=O)O)cc4)cccc32)ccc1OCc1nc(-c2ccccc2)oc1C [Example 49, sodium 4-{9-[3-methoxy-4-((5-methyl-2-phenyloxazole-4-yl)methoxy)-benzyl]-9H-carbazole-4-yloxy}benzoate] | 1050
COc1cc(Cn2c3ccccc3c3c(OC(C(=O)O)c4ccccc4)cccc32)ccc1OCc1nc(-c2ccccc2)oc1C (single isomer, unassigned) [Example 50, sodium (+)-2-{9-[3-methoxy-4-((5-methyl-2-phenyl-oxazole-4-yl)methoxy)-benzyl]-9H-carbazole-4-yloxy}-2-phenylacetate] | 471
COc1cc(Cn2c3ccccc3c3c(OCCCC(=O)O)cccc32)ccc1OCc1nc(-c2ccccc2)oc1C [Example 12, 4-{9-[3-methoxy-4-((5-methyl-2-phenyl-oxazole-4-yl)methoxy)-benzyl]-9H-carbazole-4-yloxy}butyric acid] | 725
COc1cc(Cn2c3ccccc3c3c(OCC(C)(C)C(=O)O)cccc32)ccc1OCc1nc(-c2ccncc2)oc1C [Example 35] | 509
COc1cc(Cn2c3ccccc3c3c(Oc4ccccc4C(=O)O)cccc32)ccc1OCc1nc(-c2ccccc2)oc1C [Example 47, sodium 2-{9-[3-methoxy-4-((5-methyl-2-phenyloxazole-4-yl)methoxy)-benzyl]-9H-carbazole-4-yloxy}benzoate] | 30
COc1cc(Cn2c3ccccc3c3c(OCCCC(=O)O)cccc32)ccc1OCc1nc(-c2ccccc2)oc1C [Example 33] | 1380
COc1cc(Cn2c3ccccc3c3c(OCCCCC(=O)O)cccc32)ccc1OCc1nc(-c2ccccc2)oc1C [Example 20, 5-{9-[3-methoxy-4-((5-methyl-2-phenyl-oxazole-4-yl)methoxy)-benzyl]-9H-carbazole-4-yloxy}valeric acid] | 1600
COc1cc(Cn2c3ccccc3c3c(O[C@@H](C(=O)O)C(C)C)cccc32)ccc1OCc1nc(-c2ccccc2)oc1C [Example 44, sodium (R)-2-{9-[3-methoxy-4-((5-methyl-2-phenyl-oxazole-4-yl)methoxy)-benzyl]-9H-carbazole-4-yloxy}-3-methyl-butyrate] | 462
COc1cc(Cn2c3ccccc3c3c(OC(C(=O)O)C(C)C)cccc32)ccc1OCc1nc(-c2ccccc2)oc1C (racemic) [Example 10, (±)-2-{9-[3-methoxy-4-((5-methyl-2-phenyl-oxazole-4-yl)methoxy)-benzyl]-9H-carbazole-4-yloxy}-3-methyl-butyric acid] | 400
COc1cc(Cn2c3ccccc3c3c(OCCC(C)C(=O)O)cccc32)ccc1OCc1nc(-c2ccccc2)oc1C (single isomer, unassigned) [Example 52, sodium (−)-4-{9-[3-methoxy-4-((5-methyl-2-phenyl-oxazole-4-yl)methoxy)-benzyl]-9H-carbazole-4-yloxy}-2-methyl-butyrate] | 173
COc1cc(Cn2c3ccccc3c3c(OCC(=O)O)cccc32)ccc1OCc1nc(-c2ccccc2)oc1C [Example 29] | 2460
COc1cc(Cn2c3ccccc3c3c(OCCC(C)C(=O)O)cccc32)ccc1OCc1nc(-c2ccccc2)oc1C (single isomer, unassigned) [Example 53, sodium (+)-4-{9-[3-methoxy-4-((5-methyl-2-phenyl-oxazole-4-yl)methoxy)-benzyl]-9H-carbazole-4-yloxy}-2-methyl-butyrate] | 382
COc1cc(Cn2c3ccccc3c3c(OC(C(=O)O)c4ccccc4)cccc32)ccc1OCc1nc(-c2ccccc2)oc1C (racemic) [Example 36] | 596
COc1cc(Cn2c3ccccc3c3c(Oc4cccc(C(=O)O)c4)cccc32)ccc1OCc1nc(-c2ccccc2)oc1C [Example 48, sodium 3-{9-[3-methoxy-4-((5-methyl-2-phenyloxazole-4-yl)methoxy)-benzyl]-9H-carbazole-4-yloxy}benzoate] | 2490
COc1cc(Cn2c3ccccc3c3c(OC(C(=O)O)c4ccccc4)cccc32)ccc1OCc1nc(-c2ccco2)oc1C (racemic) [Example 6, (±)-2-{9-[4-((2-(furan-2-yl)-5-methyl-oxazole-4-yl)methoxy)-3-methoxy-benzyl]-9H-carbazole-4-yloxy}-2-phenylacetic acid] | 905

Now from value to compound:

IC50 [nM] | Compound
5060 | COc1cc(Cn2c3ccccc3c3c(OCCCCCC(=O)O)cccc32)ccc1OCc1nc(-c2ccccc2)oc1C [Example 21, 6-{9-[3-methoxy-4-((5-methyl-2-phenyl-oxazole-4-yl)methoxy)-benzyl]-9H-carbazole-4-yloxy}caproic acid]
617 | COc1cc(Cn2c3ccccc3c3c(O[C@@H](C)C(=O)O)cccc32)ccc1OCc1nc(-c2ccccc2)oc1C [Example 39, sodium (S)-2-{9-[3-methoxy-4-((5-methyl-2-phenyl-oxazole-4-yl)methoxy)-benzyl]-9H-carbazole-4-yloxy}propionate]
320 | CCCCC(Oc1cccc2c1c1ccccc1n2Cc1ccc(OCc2nc(-c3ccccc3)oc2C)c(OC)c1)C(=O)O (racemic) [Example 17, (±)-2-{9-[3-methoxy-4-((5-methyl-2-phenyl-oxazole-4-yl)methoxy)-benzyl]-9H-carbazole-4-yloxy}caproic acid]
829 | CCCCCC(Oc1cccc2c1c1ccccc1n2Cc1ccc(OCc2nc(-c3ccccc3)oc2C)c(OC)c1)C(=O)O (racemic) [Example 18, (±)-2-{9-[3-methoxy-4-((5-methyl-2-phenyl-oxazole-4-yl)methoxy)-benzyl]-9H-carbazole-4-yloxy}heptane acid]
220 | CCC[C@H](Oc1cccc2c1c1ccccc1n2Cc1ccc(OCc2nc(-c3ccccc3)oc2C)c(OC)c1)C(=O)O [Example 41, sodium (S)-2-{9-[3-methoxy-4-((5-methyl-2-phenyl-oxazole-4-yl)methoxy)-benzyl]-9H-carbazole-4-yloxy}valerate]
882 | CCCCCCC(Oc1cccc2c1c1ccccc1n2Cc1ccc(OCc2nc(-c3ccccc3)oc2C)c(OC)c1)C(=O)O (racemic) [Example 19, (±)-2-{9-[3-methoxy-4-((5-methyl-2-phenyl-oxazole-4-yl)methoxy)-benzyl]-9H-carbazole-4-yloxy}caprylic acid]
